From PubChem BioAssay AID1745844 (Carcinogenic Potency Database (CPDB), 2022)
Active and inactive are the calls of the source. No rule for the calls is given here.

Tested on: rodent lifetime carcinogenesis bioassay, tumor incidence TD50
Experiment: carcinogenic potency in animals, long-term in vivo studies, CPDB compilation (AID 1745844)

In the case of `O=[N+]([O-])c1cccc2ccccc12`, the carcinogen call (mouse, strain B6C3F1, females, in feed, site: any site (literature study), lesion: several types, types named in the paper, dosed 78 weeks, study length 96 weeks) is reported as “negative (inactive)”, the TD50 (mouse, strain B6C3F1, females, in feed, site: lung, lesion: alveolar/bronchiolar adenoma + alveolar/bronchiolar carcinoma, dosed 78 weeks, study length 96 weeks) is reported as 682 mg/kg/day and the carcinogen call (mouse, strain B6C3F1, males, in feed, site: any site (literature study), lesion: several types, types named in the paper, dosed 78 weeks, study length 96 weeks) is reported as “negative (inactive)”. The carcinogen call (rat, strain Fischer 344, females, in feed, site: any site (literature study), lesion: several types, types named in the paper, dosed 78 weeks, study length 107 weeks) was “negative (inactive)”, the carcinogen call (rat, strain Fischer 344, males, in feed, site: any site (literature study), lesion: several types, types named in the paper, dosed 78 weeks, study length 107 weeks) was “negative (inactive)” and the TD50 (rat, strain Fischer 344, males, in feed, site: liver, lesion: hepatocellular adenoma + hepatocellular carcinoma + neoplastic nodule, dosed 78 weeks, study length 107 weeks) was 509 mg/kg/day.

For `CCC(C)[C@H]1O[C@]2(CC[C@@H]1C)CC1C[C@@H](C/C=C(\C)[C@@H](O[C@H]3C[C@H](OC)[C@@H](OC4C[C@H](OC)[C@@H](O)[C@H](C)O4)[C@H](C)O3)[C@@H](C)/C=C/C=C3\CO[C@@H]4[C@H](O)C(C)=C[C@@H](C(=O)O1)[C@]34O)O2` (some centres undefined) (tested in a mixture with another compound), the carcinogen call (rat, strain Wistar, males, in feed, site: forestomach, lesion: one or several types, types not named, dosed 52 weeks, study length 52 weeks) was “negative (inactive)”.

With `NNc1nc(-c2ccc([N+](=O)[O-])cc2)cs1` the TD50 (mouse, strain Swiss, females, in feed, site: all sites, lesion: lymphocytic leukemia, dosed 46 weeks, study length 66 weeks) was 10.6 mg/kg/day, the TD50 (mouse, strain Swiss, females, in feed, site: any site (literature study), lesion: several types, types named in the paper, dosed 46 weeks, study length 66 weeks) was 8.33 mg/kg/day and the TD50 (mouse, strain Swiss, females, in feed, site: lung, lesion: alveolar-cell carcinoma, dosed 46 weeks, study length 66 weeks) was 25 mg/kg/day. It also gave a TD50 (rat, strain Sprague-Dawley, females, in feed, site: any site (literature study), lesion: several types, types named in the paper, dosed 46 weeks, study length 75 weeks) of 0.743 mg/kg/day, a TD50 (rat, strain Sprague-Dawley, females, in feed, site: forestomach, lesion: squamous-cell papilloma, dosed 46 weeks, study length 75 weeks) of 9 mg/kg/day and a TD50 (rat, strain Sprague-Dawley, females, in feed, site: mammary gland, lesion: adenocarcinoma, dosed 45 weeks, study length 52 weeks) of 9.51 mg/kg/day. The TD50 (rat, strain Sprague-Dawley, females, in feed, site: mammary gland, lesion: adenocarcinoma, dosed 46 weeks, study length 75 weeks) was 3.78 mg/kg/day, the TD50 (rat, strain Sprague-Dawley, females, in feed, site: mammary gland, lesion: several types, types named in the paper, dosed 45 weeks, study length 52 weeks) was 8.66 mg/kg/day and the TD50 (rat, strain Sprague-Dawley, females, in feed, site: mammary gland, lesion: several types, types named in the paper, dosed 46 weeks, study length 75 weeks) was 1.97 mg/kg/day. For the same compound, the TD50 (rat, strain Sprague-Dawley, females, in feed, site: salivary gland, lesion: adenocarcinoma, dosed 45 weeks, study length 52 weeks) was 21.7 mg/kg/day.

`c1ccc2[nH]c(-c3cscn3)nc2c1` was tested, and the TD50 (mouse, strain B6C3F1, males, in feed, site: liver, lesion: hepatocellular adenoma, dosed 52 weeks, study length 52 weeks) was 390 mg/kg/day (inactive), the carcinogen call (mouse, strain Crj: CD-1 (ICR), females, in feed, site: liver, lesion: one or several types, types not named, dosed 78 weeks, study length 78 weeks) was “negative (inactive)” and the TD50 (mouse, strain Crj: CD-1 (ICR), females, in feed, site: lung, lesion: alveolar/bronchiolar adenoma, dosed 78 weeks, study length 78 weeks) was 4880 mg/kg/day (inactive). For the same compound, the carcinogen call (mouse, strain Crj: CD-1 (ICR), females, in feed, site: lung, lesion: alveolar/bronchiolar carcinoma, dosed 78 weeks, study length 78 weeks) was “negative (inactive)”, the TD50 (mouse, strain Crj: CD-1 (ICR), females, in feed, site: urinary bladder, lesion: mesenchymal neoplasm, dosed 78 weeks, study length 78 weeks) was 16300 mg/kg/day (inactive) and the carcinogen call (mouse, strain Crj: CD-1 (ICR), males, in feed, site: liver, lesion: hepatocellular adenoma, dosed 78 weeks, study length 78 weeks) was “negative (inactive)”. The carcinogen call (mouse, strain Crj: CD-1 (ICR), males, in feed, site: liver, lesion: hepatocellular carcinoma, dosed 78 weeks, study length 78 weeks) was “negative (inactive)”, the carcinogen call (mouse, strain Crj: CD-1 (ICR), males, in feed, site: lung, lesion: alveolar/bronchiolar adenoma, dosed 78 weeks, study length 78 weeks) was “negative (inactive)” and the carcinogen call (mouse, strain Crj: CD-1 (ICR), males, in feed, site: lung, lesion: alveolar/bronchiolar carcinoma, dosed 78 weeks, study length 78 weeks) was “negative (inactive)”. For the same compound, the TD50 (mouse, strain Crj: CD-1 (ICR), males, in feed, site: urinary bladder, lesion: transitional-cell papilloma, dosed 78 weeks, study length 78 weeks) was 15000 mg/kg/day (inactive), the carcinogen call (rat, strain F344/DuCrj, females, in feed, site: kidney, lesion: transitional-cell carcinoma, dosed 104 weeks, study length 104 weeks) was “negative (inactive)” and the carcinogen call (rat, strain F344/DuCrj, females, in feed, site: liver, lesion: one or several types, types not named, dosed 104 weeks, study length 104 weeks) was “negative (inactive)”. The TD50 (rat, strain F344/DuCrj, females, in feed, site: urinary bladder, lesion: transitional-cell papilloma, dosed 104 weeks, study length 104 weeks) was 7640 mg/kg/day (inactive), the TD50 (rat, strain F344/DuCrj, males, in feed, site: kidney, lesion: transitional-cell carcinoma, dosed 104 weeks, study length 104 weeks) was 3050 mg/kg/day (inactive) and the carcinogen call (rat, strain F344/DuCrj, males, in feed, site: liver, lesion: one or several types, types not named, dosed 104 weeks, study length 104 weeks) was “negative (inactive)”. For the same compound, the TD50 (rat, strain F344/DuCrj, males, in feed, site: preputial gland, lesion: adenoma, dosed 104 weeks, study length 104 weeks) was 571 mg/kg/day and the carcinogen call (rat, strain F344/DuCrj, males, in feed, site: urinary bladder, lesion: transitional-cell papilloma, dosed 104 weeks, study length 104 weeks) was “negative (inactive)”.

For `CC(=O)Nc1ccc(CC(=O)O)cc1`, the carcinogen call (mouse, strain B6C3F1, females, in feed, site: liver, lesion: hepatocellular adenoma, dosed 78 weeks, study length 78 weeks) was “negative (inactive)”, the carcinogen call (mouse, strain B6C3F1, females, in feed, site: liver, lesion: hepatocellular carcinoma, dosed 78 weeks, study length 78 weeks) was “negative (inactive)” and the carcinogen call (mouse, strain B6C3F1, females, in feed, site: lung, lesion: several types, types named in the paper, dosed 78 weeks, study length 78 weeks) was “negative (inactive)”. For the same compound, the carcinogen call (mouse, strain B6C3F1, males, in feed, site: liver, lesion: hepatocellular adenoma, dosed 78 weeks, study length 78 weeks) was “negative (inactive)”, the TD50 (mouse, strain B6C3F1, males, in feed, site: lung, lesion: alveolar/bronchiolar adenoma, dosed 78 weeks, study length 78 weeks) was 27700 mg/kg/day (inactive) and the TD50 (mouse, strain B6C3F1, males, in feed, site: lung, lesion: alveolar/bronchiolar carcinoma, dosed 78 weeks, study length 78 weeks) was 56100 mg/kg/day (inactive). The carcinogen call (rat, strain Fischer 344, females, in feed, site: liver, lesion: several types, types named in the paper, dosed 104 weeks, study length 104 weeks) was “negative (inactive)”, the carcinogen call (rat, strain Fischer 344, males, in feed, site: liver, lesion: hepatocellular adenoma, dosed 104 weeks, study length 104 weeks) was “negative (inactive)” and the carcinogen call (rat, strain Fischer 344, males, in feed, site: liver, lesion: hepatocellular carcinoma, dosed 104 weeks, study length 104 weeks) was “negative (inactive)”.

With `CC(C)Oc1ccccc1OC(=O)N(C)N=O` the TD50 (rat, strain Sprague-Dawley, males, by gavage, site: forestomach, lesion: carcinoma, dosed 31 weeks, study length 90 weeks) was 0.434 mg/kg/day and the TD50 (rat, strain Sprague-Dawley, males, by gavage, site: forestomach, lesion: one or several types, types not named, dosed 31 weeks, study length 90 weeks) was 0.364 mg/kg/day.

`CC1(C)S[C@@H]2[C@H](NC(=O)COc3ccccc3)C(=O)N2[C@H]1C(=O)O` was tested, and the carcinogen call (mouse, strain B6C3F1, females, by gavage, site: any site (literature study), lesion: several types, types named in the paper, dosed 104 weeks, study length 104 weeks) was “negative (inactive)”, the TD50 (mouse, strain B6C3F1, females, by gavage, site: liver, lesion: hepatocellular adenoma + hepatocellular carcinoma + neoplastic nodule, dosed 104 weeks, study length 104 weeks) was 10200 mg/kg/day and the TD50 (mouse, strain B6C3F1, females, by gavage, site: lung, lesion: alveolar/bronchiolar adenoma + alveolar/bronchiolar carcinoma, dosed 104 weeks, study length 104 weeks) was 16600 mg/kg/day. For the same compound, the carcinogen call (mouse, strain B6C3F1, males, by gavage, site: any site (literature study), lesion: several types, types named in the paper, dosed 104 weeks, study length 104 weeks) was “negative (inactive)”, the TD50 (rat, strain Fischer 344, females, by gavage, site: any site (literature study), lesion: several types, types named in the paper, dosed 103 weeks, study length 104 weeks) was 503 mg/kg/day and the TD50 (rat, strain Fischer 344, females, by gavage, site: clitoral gland, lesion: adenoma, NOS, dosed 103 weeks, study length 104 weeks) was 3650 mg/kg/day. For the same compound, the TD50 (rat, strain Fischer 344, females, by gavage, site: thyroid gland, lesion: c-cell adenoma + c-cell carcinoma, dosed 103 weeks, study length 104 weeks) was 1360 mg/kg/day (inactive), the TD50 (rat, strain Fischer 344, females, by gavage, site: thyroid gland, lesion: c-cell adenoma, dosed 103 weeks, study length 104 weeks) was 1620 mg/kg/day and the TD50 (rat, strain Fischer 344, males, by gavage, site: any site (literature study), lesion: several types, types named in the paper, dosed 103 weeks, study length 104 weeks) was 544 mg/kg/day. The TD50 (rat, strain Fischer 344, males, by gavage, site: liver, lesion: hepatocellular adenoma + hepatocellular carcinoma + neoplastic nodule, dosed 103 weeks, study length 104 weeks) was 12200 mg/kg/day, the TD50 (rat, strain Fischer 344, males, by gavage, site: pituitary gland, anterior, lesion: adenoma, NOS + carcinoma, NOS, dosed 103 weeks, study length 104 weeks) was 874 mg/kg/day (inactive) and the TD50 (rat, strain Fischer 344, males, by gavage, site: pituitary gland, anterior, lesion: adenoma, NOS, dosed 103 weeks, study length 104 weeks) was 949 mg/kg/day.

For `C1C2OC2C2C1C1CC2C2OC12` (centres undefined), the TD50 (mouse, strain CD-1 HaM/ICR, females, in feed, site: any site (literature study), lesion: several types, types named in the paper, dosed 64 weeks, study length 86 weeks) was 789 mg/kg/day (inactive), the carcinogen call (mouse, strain CD-1 HaM/ICR, females, in feed, site: liver, lesion: several types, types named in the paper, dosed 64 weeks, study length 86 weeks) was “negative (inactive)” and the TD50 (mouse, strain CD-1 HaM/ICR, females, in feed, site: lung, lesion: several types, types named in the paper, dosed 64 weeks, study length 86 weeks) was 1660 mg/kg/day (inactive). The TD50 (mouse, strain CD-1 HaM/ICR, males, in feed, site: any site (literature study), lesion: several types, types named in the paper, dosed 77 weeks, study length 86 weeks) was 149 mg/kg/day (inactive), the TD50 (mouse, strain CD-1 HaM/ICR, males, in feed, site: liver, lesion: several types, types named in the paper, dosed 77 weeks, study length 86 weeks) was 930 mg/kg/day (inactive) and the TD50 (mouse, strain CD-1 HaM/ICR, males, in feed, site: lung, lesion: several types, types named in the paper, dosed 77 weeks, study length 86 weeks) was 373 mg/kg/day (inactive). For the same compound, the TD50 (rat, strain Charles River CD (Sprague-Dawley), males, in feed, site: any site (literature study), lesion: several types, types named in the paper, dosed 77 weeks, study length 107 weeks) was 176 mg/kg/day (inactive) and the TD50 (rat, strain Charles River CD (Sprague-Dawley), males, in feed, site: liver, lesion: several types, types named in the paper, dosed 77 weeks, study length 107 weeks) was 3910 mg/kg/day (inactive).

For `CC1=C(/C=C/C(C)=C/C=C/C(C)=C/C(=O)O)C(C)(C)CCC1`, the carcinogen call (rat, strain Sprague-Dawley, females, i.p., site: any site (literature study), lesion: malignant tumor, dosed 104 weeks, study length 104 weeks) was “negative (inactive)” and the TD50 (rat, strain Sprague-Dawley, males, i.p., site: any site (literature study), lesion: malignant tumor, dosed 104 weeks, study length 104 weeks) was 188 mg/kg/day (inactive).

`C1CCCNCCC1` was tested, and the TD50 (rat, strain MRC, females, in drinking water, site: any site (literature study), lesion: several types, types named in the paper, dosed 75 weeks, study length 104 weeks) was 15.8 mg/kg/day and the TD50 (rat, strain MRC, males, in drinking water, site: any site (literature study), lesion: several types, types named in the paper, dosed 75 weeks, study length 104 weeks) was 6.37 mg/kg/day.
